These results are taken from ChEMBL document CHEMBL1141151, “High-affinity epidermal growth factor receptor (EGFR) irreversible inhibitors with diminished chemical reactivities as positron emission tomography (PET)-imaging agent candidates of EGFR overexpressing tumors” (J Med Chem, 2005).

Each structure is given as a SMILES string. Where only a bound is given, the exact number is not on record here.

In assay [1] the target is T1, Epidermal growth factor receptor (Homo sapiens, UniProt P00533). Description: (§1) Inhibition of EGF Receptor autophosphorylation in A431 cell lysate.
T1 sequence (P00533 whole entry): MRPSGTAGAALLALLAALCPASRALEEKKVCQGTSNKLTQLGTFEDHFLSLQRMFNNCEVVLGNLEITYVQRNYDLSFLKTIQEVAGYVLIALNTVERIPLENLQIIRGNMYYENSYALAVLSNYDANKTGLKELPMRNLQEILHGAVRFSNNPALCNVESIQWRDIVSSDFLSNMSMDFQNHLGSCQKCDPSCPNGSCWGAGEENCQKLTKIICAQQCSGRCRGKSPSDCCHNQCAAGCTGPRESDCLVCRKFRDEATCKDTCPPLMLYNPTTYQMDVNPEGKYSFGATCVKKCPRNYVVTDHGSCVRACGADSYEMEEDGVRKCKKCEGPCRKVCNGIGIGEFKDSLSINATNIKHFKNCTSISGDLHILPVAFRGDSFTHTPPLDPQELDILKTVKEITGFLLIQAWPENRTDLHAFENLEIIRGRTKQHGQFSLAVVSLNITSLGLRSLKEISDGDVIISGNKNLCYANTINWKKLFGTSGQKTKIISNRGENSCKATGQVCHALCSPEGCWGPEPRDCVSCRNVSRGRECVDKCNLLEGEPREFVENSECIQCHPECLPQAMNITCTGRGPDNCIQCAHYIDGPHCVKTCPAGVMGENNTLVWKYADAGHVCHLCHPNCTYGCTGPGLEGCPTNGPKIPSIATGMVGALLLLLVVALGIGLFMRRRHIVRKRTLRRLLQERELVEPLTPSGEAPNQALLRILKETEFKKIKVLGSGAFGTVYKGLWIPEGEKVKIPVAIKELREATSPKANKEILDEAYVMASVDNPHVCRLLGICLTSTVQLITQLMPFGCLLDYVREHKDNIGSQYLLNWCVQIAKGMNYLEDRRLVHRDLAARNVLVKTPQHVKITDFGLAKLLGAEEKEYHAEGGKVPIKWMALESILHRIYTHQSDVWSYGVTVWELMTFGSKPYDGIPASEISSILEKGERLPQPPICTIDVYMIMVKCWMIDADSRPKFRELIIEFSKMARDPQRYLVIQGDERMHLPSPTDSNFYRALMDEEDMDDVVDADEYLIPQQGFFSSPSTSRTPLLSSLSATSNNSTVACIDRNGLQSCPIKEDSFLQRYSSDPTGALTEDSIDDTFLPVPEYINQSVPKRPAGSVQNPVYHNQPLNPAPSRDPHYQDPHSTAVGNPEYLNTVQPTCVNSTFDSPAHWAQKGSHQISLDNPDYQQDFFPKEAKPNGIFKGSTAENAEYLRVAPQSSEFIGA
Assay [2] deals with T1, Epidermal growth factor receptor. The description is as §1. This is another data set of the same source.
The target is the same in assay [3]. The assay is described as §1. This is another data set of the same source.
Assay [4] addresses Platelet-derived growth factor receptor (Homo sapiens, UniProt P09619+P16234). The experiment in a line: Inhibition of human PDGFR kinase in intact NIHPDGFR cells. The assay is classed as cell-based.
The target of assay [5] is T1, Epidermal growth factor receptor. As to conditions: a-431.
Description: Inhibition of EGF Receptor autophosphorylation in A431 cell lysate; Range = 10000-50000 nM
Assay [6] has as its target T2, Receptor tyrosine-protein kinase erbB-2 (Homo sapiens, UniProt P04626). Description: Inhibition of HER2 kinase in intact CSH12 cells. It is filed as cell-based.
Assay [7] concerns the target T2, Receptor tyrosine-protein kinase erbB-2. The experiment in a line: Inhibition of HER2 kinase in intact CSH12 cells; Range = 25-50 nM. The assay is classed as cell-based.

T2 sequence (P04626 whole entry): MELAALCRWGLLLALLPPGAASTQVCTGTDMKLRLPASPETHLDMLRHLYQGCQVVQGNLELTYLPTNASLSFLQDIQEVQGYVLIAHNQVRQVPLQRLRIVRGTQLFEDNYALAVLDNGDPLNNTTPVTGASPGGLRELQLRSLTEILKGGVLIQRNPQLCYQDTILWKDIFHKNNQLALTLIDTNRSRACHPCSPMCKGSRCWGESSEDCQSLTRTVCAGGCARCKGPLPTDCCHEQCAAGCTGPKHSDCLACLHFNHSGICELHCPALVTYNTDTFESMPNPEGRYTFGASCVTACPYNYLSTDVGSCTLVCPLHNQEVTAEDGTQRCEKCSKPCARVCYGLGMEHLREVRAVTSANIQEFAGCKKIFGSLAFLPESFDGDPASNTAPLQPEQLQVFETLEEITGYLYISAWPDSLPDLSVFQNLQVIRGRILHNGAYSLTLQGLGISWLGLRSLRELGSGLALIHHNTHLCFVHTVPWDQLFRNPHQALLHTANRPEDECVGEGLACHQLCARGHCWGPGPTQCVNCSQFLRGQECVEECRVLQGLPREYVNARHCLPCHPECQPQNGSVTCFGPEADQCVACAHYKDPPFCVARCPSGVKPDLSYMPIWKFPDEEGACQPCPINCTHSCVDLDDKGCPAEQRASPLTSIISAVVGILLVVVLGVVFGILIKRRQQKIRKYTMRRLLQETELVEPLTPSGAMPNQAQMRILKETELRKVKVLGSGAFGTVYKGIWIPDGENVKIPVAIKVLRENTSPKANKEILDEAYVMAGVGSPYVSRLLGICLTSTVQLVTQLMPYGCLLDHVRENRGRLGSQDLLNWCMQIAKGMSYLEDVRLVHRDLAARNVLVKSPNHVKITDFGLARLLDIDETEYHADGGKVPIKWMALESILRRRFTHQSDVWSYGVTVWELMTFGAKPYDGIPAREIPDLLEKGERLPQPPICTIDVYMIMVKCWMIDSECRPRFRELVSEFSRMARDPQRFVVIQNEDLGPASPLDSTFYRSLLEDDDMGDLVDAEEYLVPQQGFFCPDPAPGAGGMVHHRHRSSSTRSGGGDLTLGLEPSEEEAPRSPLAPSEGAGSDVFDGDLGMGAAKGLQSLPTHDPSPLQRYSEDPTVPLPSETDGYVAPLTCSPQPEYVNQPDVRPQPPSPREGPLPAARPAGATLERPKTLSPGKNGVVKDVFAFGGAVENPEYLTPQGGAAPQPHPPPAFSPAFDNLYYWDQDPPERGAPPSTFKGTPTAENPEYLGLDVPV

For orientation: IC50 means the concentration that inhibits the measured activity by half. A high value points to lower potency. Consider `CN(C)C/C=C/C(=O)Nc1ccc2ncnc(Nc3cccc(I)c3)c2c1`, for which the IC50 in assay [1] was 0.94 nM; in assay [2], less than 5 nM; in assay [3] it was less than 5 nM.

On to `CN(C)C/C=C/C(=O)Nc1ccc2ncnc(Nc3cc(Cl)c(Cl)cc3F)c2c1`, for which the IC50 in assay [4] is more than 1000 nM.

Regarding `COCC(=O)Nc1ccc2ncnc(Nc3cccc(I)c3)c2c1`, the IC50 in assay [1] was found to be 150 nM; in assay [2], 50000 nM.

For `COCC(=O)Nc1ccc2ncnc(Nc3cc(Cl)c(Cl)cc3F)c2c1`, the IC50 was 252 nM in assay [1], more than 1000 nM in assay [4], 50 µM in assay [5] and more than 500 nM in assay [6].

As to `O=C(CCl)Nc1ccc2ncnc(Nc3cc(Cl)c(Cl)cc3F)c2c1`, the IC50 is 50 nM in assay [7], 0.07 nM in assay [1] and more than 1000 nM in assay [4].

With `C=CC(=O)Nc1cc2c(Nc3cccc(Br)c3)ncnc2cc1N1CCN(C)CC1`, the IC50 in assay [2] was more than 500 nM.

Turning to `C=CC(=O)Nc1cc2c(Nc3cc(Cl)c(Cl)cc3F)ncnc2cc1N1CCN(C)CC1`, the IC50 is 6000 nM in assay [1], more than 500 nM in assay [2] and 250 nM in assay [3].

`COc1cc2ncnc(Nc3cc(Cl)c(Cl)cc3F)c2cc1OC` came in with an IC50 in assay [1] of 0.208 nM.
